Reference: US6908935B2, “Calcium receptor modulating agents” (Amgen Inc., priority 2002, dated 2005)

Each compound was assayed against T1, human parathyroid cell Ca^2+ receptor (hPCaR) (Homo sapiens, UniProt P41180) (assay: [Ca2+]i measurement with fluo-3 in HEK 293 4.0-7 cells stably transfected with hPCaR). Conditions: fluo-3 fluorescence (485/530 nm), effect on [Ca^2+]i.
T1 construct: expressed in transfected cells
T1 sequence (P41180 20-1078): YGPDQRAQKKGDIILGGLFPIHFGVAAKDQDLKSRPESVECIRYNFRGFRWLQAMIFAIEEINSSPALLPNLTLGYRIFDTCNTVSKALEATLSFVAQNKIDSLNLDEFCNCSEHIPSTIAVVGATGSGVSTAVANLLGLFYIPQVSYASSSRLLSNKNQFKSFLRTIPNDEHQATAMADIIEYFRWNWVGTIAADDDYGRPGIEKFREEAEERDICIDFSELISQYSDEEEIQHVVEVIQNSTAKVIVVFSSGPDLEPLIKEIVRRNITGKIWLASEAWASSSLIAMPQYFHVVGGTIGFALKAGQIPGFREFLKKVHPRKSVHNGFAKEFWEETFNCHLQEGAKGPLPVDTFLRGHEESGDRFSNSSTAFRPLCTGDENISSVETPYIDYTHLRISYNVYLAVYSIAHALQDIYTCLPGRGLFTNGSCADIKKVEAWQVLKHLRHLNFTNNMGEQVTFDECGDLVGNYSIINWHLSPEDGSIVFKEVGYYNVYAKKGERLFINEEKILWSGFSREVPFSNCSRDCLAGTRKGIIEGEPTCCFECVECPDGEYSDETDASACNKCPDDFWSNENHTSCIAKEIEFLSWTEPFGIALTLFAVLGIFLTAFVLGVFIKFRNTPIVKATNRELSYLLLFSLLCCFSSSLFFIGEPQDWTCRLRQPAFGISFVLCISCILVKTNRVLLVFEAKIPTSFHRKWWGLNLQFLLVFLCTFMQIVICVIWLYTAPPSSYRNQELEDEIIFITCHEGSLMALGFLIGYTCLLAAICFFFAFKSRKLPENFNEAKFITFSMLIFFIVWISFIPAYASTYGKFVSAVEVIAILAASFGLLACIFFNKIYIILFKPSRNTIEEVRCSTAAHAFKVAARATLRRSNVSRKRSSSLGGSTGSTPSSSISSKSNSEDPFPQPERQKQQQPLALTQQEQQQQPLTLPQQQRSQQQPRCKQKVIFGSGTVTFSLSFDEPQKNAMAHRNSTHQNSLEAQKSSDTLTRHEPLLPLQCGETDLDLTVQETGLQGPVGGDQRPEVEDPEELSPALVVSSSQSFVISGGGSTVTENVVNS
Type: cell-based
Procedure, shortened: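 HEK 293 cells stably expressing human parathyroid Ca2+ receptor (clone 4.0-7), loaded with 2 μM fluo-3 AM for 30 min at 37 °C in parathyroid cell buffer (pH 7.45) with 1 mM CaCl2 and 0.5% BSA. After compound addition, intracellular Ca2+ followed by fluorescence at 485 nm excitation/530 nm emission.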

Structure (SMILES) | EC50 [µM]
CCNC(=O)Nc1ccc(CN[C@H](C)c2cccc(OC)c2)cc1-c1ccc(OC)cc1 [N-ethyl-N′-(4′-(methyloxy)-5-((((1R)-1-(3-(methyloxy)phenyl)ethyl)amino)methyl)-1,1′-biphenyl-2-yl)urea] | ≤ 10
COc1ccc(CN[C@H](C)c2ccccc2)cc1-c1ccc2c(c1)OC(F)(F)O2 [(1R)-N-((3-(2,2-difluoro-1,3-benzodioxol-5-yl)-4-(methyloxy)phenyl)methyl)-1-phenylethanamine] | ≤ 10
C[C@@H](NCc1cccc(-c2ccc(F)cc2)c1)c1ccccc1 [(1R)-N-((4′-fluoro-1,1′-biphenyl-3-yl)methyl)-1-phenylethanamine] | ≤ 10
COc1ccc(CN[C@H](C)c2ccccc2)cc1-c1ccc2c(ccn2CC(F)(F)F)c1 [(1R)-N-((4-(methyloxy)-3-(1-(2,2,2-trifluoroethyl)-1H-indol-5-yl)phenyl)methyl)-1-phenylethanamine] | ≤ 10
CCn1nc2ccc(-c3cc(CN[C@H](C)c4ccccc4)ccc3OC)cc2n1 [(1R)-N-((3-(2-ethyl-2H-1,2,3-benzotriazol-5-yl)-4-(methyloxy)phenyl)methyl)-1-phenylethanamine] | ≤ 10
COCCOc1cccc([C@@H](C)NCc2ccc(OC)c(-c3ccc(C(F)(F)F)cc3)c2)c1 [(1R)-1-(3-((2-(methyloxy)ethyl)oxy)phenyl)-N-((6-(methyloxy)-4′-(trifluoromethyl)-1,1′-biphenyl-3-yl)methyl)ethanamine] | ≤ 10
COc1ccc([C@@H](C)NCc2ccc(OC)c(-c3nccs3)c2)cc1 [(1R)-1-(4-(methyloxy)phenyl)-N-((4-(methyloxy)-3-(1,3-thiazol-2-yl)phenyl)methyl)ethanamine] | ≤ 10
COc1ccc(CN[C@H](C)c2cccc3ccccc23)cc1-c1ccc(C(N)=O)cc1 [2′-(methyloxy)-5′-((((1R)-1-(1-naphthalenyl)ethyl)amino)methyl)-1,1′-biphenyl-4-carboxamide] | ≤ 10
COc1ccc(CN[C@H](C)c2ccccc2)cc1-c1ccc2c(c1)CCO2 [(1R)-N-((3-(2,3-dihydro-1-benzofuran-5-yl)-4-(methyloxy)phenyl)methyl)-1-phenylethanamine] | ≤ 10
COc1ccc(CN[C@H](C)c2cccc3ccccc23)cc1-c1csc(N2CCCCC2)n1 [(1R)-N-((4-(methyloxy)-3-(2-(1-piperidinyl)-1,3-thiazol-4-yl)phenyl)methyl)-1-(1-naphthalenyl)ethanamine] | ≤ 10
COc1ccc(-c2cc(CN[C@H](C)c3cccc(OC)c3)ccc2OC)nc1 [(1R)-N-((4-(methyloxy)-3-(5-(methyloxy)-2-pyridinyl)phenyl)methyl)-1-(3-(methyloxy)phenyl)ethanamine] | ≤ 10
COc1cccc([C@@H](C)NCc2ccc(OC)c(-c3ccc(Cl)cc3)c2)c1 [(1R)-N-((4′-chloro-6-(methyloxy)-1,1′-biphenyl-3-yl)methyl)-1-(3-(methyloxy)phenyl)ethanamine] | ≤ 10
COc1ccc(CN[C@H](C)c2cccc3ccccc23)cc1-c1nc2ccccc2n1C [(1R)-N-((3-(1-methyl-1H-benzimidazol-2-yl)-4-(methyloxy)phenyl)methyl)-1-(1-naphthalenyl)ethanamine] | ≤ 10
C[C@@H](NCc1ccc(OCC(F)(F)F)c(-c2ccc(C(F)(F)F)cc2)c1)c1ccccc1 [(1R)-1-phenyl-N-((6-((2,2,2-trifluoroethyl)oxy)-4′-(trifluoromethyl)-1,1′-biphenyl-3-yl)methyl)ethanamine] | ≤ 10
COc1ccc(CN[C@H](C)c2cccc3ccccc23)cc1-c1cccc(C#N)c1 [2′-(methyloxy)-5′-((((1R)-1-(1-naphthalenyl)ethyl)amino)methyl)-1,1′-biphenyl-3-carbonitrile] | ≤ 10
COc1ccc(CN[C@H](C)c2ccccc2)cc1-c1cccc(OC(F)(F)F)c1 [(1R)-N-((6-(methyloxy)-3′-((trifluoromethyl)oxy)-1,1′-biphenyl-3-yl)methyl)-1-phenylethanamine] | ≤ 10
COc1ccc(CN[C@H](C)c2cccc3ccccc23)cc1-c1ccc2nccnc2c1 [(1R)-N-((4-(methyloxy)-3-(6-quinoxalinyl)phenyl)methyl)-1-(1-naphthalenyl)ethanamine] | ≤ 10

Structure (SMILES) | EC50 [µM]
COc1ccc([C@@H](C)NCc2ccc(OC)c(-c3cnccn3)c2)cc1 [(1R)-1-(4-(methyloxy)phenyl)-N-((4-(methyloxy)-3-(2-pyrazinyl)phenyl)methyl)ethanamine] | ≤ 10
Cc1ccc([C@@H](C)NCc2cccc(-c3ccoc3)c2)cc1 [Example 224, (1R)-N-((3-(3-furanyl)phenyl)methyl)-1-(4-methylphenyl)ethanamine] | ≤ 10
COc1ccc(CN[C@H](C)c2ccccc2)cc1-c1ccoc1 [(1R)-N-((3-(3-furanyl)-4-(methyloxy)phenyl)methyl)-1-phenylethanamine] | ≤ 10
CCN(CC)CCCOc1ccc(-c2cc(CN[C@H](C)c3cccc(OC)c3)ccc2OC)cn1 [N-((3-(6-((3-(diethylamino)propyl)oxy)-3-pyridinyl)-4-(methyloxy)phenyl)methyl)-N-((1R)-1-(3-(methyloxy)phenyl)ethyl)amine] | ≤ 10
COc1ccc(CN[C@H](C)c2cccc3ccccc23)cc1-c1ccc2nn(C)cc2c1 [(1R)-N-((3-(2-methyl-2H-indazol-5-yl)-4-(methyloxy)phenyl)methyl)-1-(1-naphthalenyl)ethanamine] | ≤ 10
COc1ccc([C@@H](C)NCc2cccc(-c3cnccn3)c2)cc1 [(1R)-1-(4-(methyloxy)phenyl)-N-((3-(2-pyrazinyl)phenyl)methyl)ethanamine] | ≤ 10
COc1ccc(CN[C@H](C)c2ccc3ccccc3c2)cc1-c1ccsc1 [(1R)-N-((4-(methyloxy)-3-(3-thienyl)phenyl)methyl)-1-(2-naphthalenyl)ethanamine] | ≤ 10
COc1cccc(-c2cccc(CN[C@H](C)c3ccc(C)cc3)c2)c1 [(1R)-N-((3′-(methyloxy)-1,1′-biphenyl-3-yl)methyl)-1-(4-methylphenyl)ethanamine] | ≤ 10
COc1cccc([C@@H](C)NCc2ccc(OC)c(-c3ccc4c(ccn4CC(N)=O)c3)c2)c1 [2-(5-(2-(methyloxy)-5-((((1R)-1-(3-(methyloxy)phenyl)ethyl)amino)methyl)phenyl)-1H-indol-1-yl)acetamide] | ≤ 10
COc1ccc(CN[C@H](C)c2ccccc2)cc1-c1ccc(OCCN2CCCC2)nc1 [(1R)-N-((4-(methyloxy)-3-(6-((2-(1-pyrrolidinyl)ethyl)oxy)-3-pyridinyl)phenyl)methyl)-1-phenylethanamine] | ≤ 10
COc1ccc(CN[C@H](C)c2cccc(Cl)c2)cc1-c1ccc(C(F)(F)F)cc1 [(1R)-1-(3-chlorophenyl)-N-((6-(methyloxy)-4′-(trifluoromethyl)-1,1′-biphenyl-3-yl)methyl)ethanamine] | ≤ 10
C[C@@H](NCc1cccc(-c2ccccn2)c1)c1ccccc1 [(1R)-1-phenyl-N-((3-(2-pyridinyl)phenyl)methyl)ethanamine] | ≤ 10
COCCn1cc(-c2cc(CN[C@H](C)c3cccc(OC)c3)ccc2OC)ccc1=O [1-(2-(methyloxy)ethyl)-5-(2-(methyloxy)-5-((((1R)-1-(3-(methyloxy)phenyl)ethyl)amino)methyl)phenyl)-2-(1H)-pyridinone] | ≤ 10
COc1cccc([C@@H](C)NCc2ccc(OC)c(-c3ccc4c(c3)CCO4)c2)c1 [(1R)-N-((3-(2,3-dihydro-1-benzofuran-5-yl)-4-(methyloxy)phenyl)methyl)-1-(3-(methyloxy)phenyl)ethanamine] | ≤ 10
COc1cccc([C@@H](C)NCc2ccc(Cl)c(-c3ccc(OC(F)(F)F)cc3)c2)c1 [(1R)-N-((6-chloro-4′-((trifluoromethyl)oxy)-1,1′-biphenyl-3-yl)methyl)-1-(3-(methyloxy)phenyl)ethanamine] | ≤ 10
COc1ccc(CN[C@H](C)c2cccc3ccccc23)cc1-c1ccc(OC(F)(F)F)cc1 [(1R)-N-((6-(methyloxy)-4′-((trifluoromethyl)oxy)-1,1′-biphenyl-3-yl)methyl)-1-(1-naphthalenyl)ethanamine] | ≤ 10
COc1ccc(CN[C@H](C)c2ccccc2)cc1-c1ccc2ccn(C)c2c1 [(1R)-N-((3-(1-methyl-1H-indol-6-yl)-4-(methyloxy)phenyl)methyl)-1-phenylethanamine] | ≤ 10
